Assay results: the supplement of paper PMC5908809

How the values were obtained:
[1] = system: normal NK cells expanded with K562-aAPC; assay: drug sensitivity score (DSS) (DSS units); higher = more sensitive; extreme values may be limits of the assay; conditions: 72 h; IL-2 2.5 ng/mL
Protocol: (§1)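 Drug sensitivity and resistance testing on K562-aAPC-expanded normal NK cells: 5 concentrations (10-fold steps over a 10,000-fold range), 72 h at 37 °C, viability by CellTiter-Glo normalised to DMSO and benzethonium chloride controls; DSS from the fitted curve.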

[2] = system: DERL-7 (IL-2 2.5 ng/mL); assay: as above; conditions: 72 h
[3] = system: normal primary NK cells, pool 2 (3 donors) (IL-2 2.5 ng/mL); assay: as above; conditions: 72 h
[4] = system: normal primary NK cells, pool 1 (3 donors), resting (IL-2 0 ng/mL); assay: as above; conditions: 72 h
[5] = system: NKL (IL-2 2.5 ng/mL); assay: as above; conditions: 72 h
[6] = system: SNK-6 (IL-2 2.5 ng/mL); assay: as above; conditions: 72 h
[7] = system: KHYG-1 (IL-2 2.5 ng/mL); assay: as above; conditions: 72 h
[8] = system: IMC-1 (IL-2 20 ng/mL); assay: as above; conditions: 72 h
[9] = system: NK-92 (IL-2 2.5 ng/mL); assay: as above; conditions: 72 h
[10] = system: KAI3 (IL-2 2.5 ng/mL); assay: as above; conditions: 72 h
[11] = system: YT (IL-2 2.5 ng/mL); assay: as above; conditions: 72 h
[12] = system: normal primary NK cells, pool 3 (3 donors) (IL-2 2.5 ng/mL); assay: as above; conditions: 72 h
[13] = system: normal primary NK cells, pool 1 (3 donors) (IL-2 2.5 ng/mL); assay: as above; conditions: 72 h
[14] = system: NK-YS (IL-2 2.5 ng/mL); assay: as above; conditions: 72 h
[15] = system: DERL-7 (IL-2 2.5 ng/mL); assay: percent inhibition of viability; higher = more inhibition; conditions: 72 h
[16] = system: normal primary NK cells, pool 2 (3 donors) (IL-2 2.5 ng/mL); assay: as above; conditions: 72 h
[17] = system: normal primary NK cells, pool 1 (3 donors), resting (IL-2 0 ng/mL); assay: as above; conditions: 72 h
[18] = system: NKL (IL-2 2.5 ng/mL); assay: as above; conditions: 72 h
[19] = system: SNK-6 (IL-2 2.5 ng/mL); assay: as above; conditions: 72 h
[20] = system: KHYG-1 (IL-2 2.5 ng/mL); assay: as above; conditions: 72 h
[21] = system: IMC-1 (IL-2 20 ng/mL); assay: as above; conditions: 72 h
[22] = system: NK-92 (IL-2 2.5 ng/mL); assay: as above; conditions: 72 h
[23] = system: KAI3 (IL-2 2.5 ng/mL); assay: as above; conditions: 72 h
[24] = system: YT (IL-2 2.5 ng/mL); assay: as above; conditions: 72 h
[25] = system: normal primary NK cells, pool 3 (3 donors) (IL-2 2.5 ng/mL); assay: as above; conditions: 72 h
[26] = system: normal primary NK cells, pool 1 (3 donors) (IL-2 2.5 ng/mL); assay: as above; conditions: 72 h
[27] = system: NK-YS (IL-2 2.5 ng/mL); assay: as above; conditions: 72 h
[28] = system: normal NK cells expanded with K562-aAPC; assay: as above; conditions: 72 h, IL-2 2.5 ng/mL
Protocol: as §1

COc1cc(F)c(F)c(Nc2ccc(I)cc2F)c1NS(=O)(=O)C1(C[C@H](O)CO)CC1 [Refametinib] (max concentration tested 10000 nM)
Conditions | drug sensitivity score
[1] | 1.44
[2] | 14.7
[3] | 3.81
[4] | 4.14
[5] | 19.1
[6] | 0
[7] | 16
[8] | 2.67
[9] | 4.28
[10] | 6.75
[11] | 4.03
[12] | 1.74
[13] | 3.32
[14] | 2.69

percent inhibition of viability [%]
Conditions | 1 nM | 10 nM | 100 nM | 1000 nM | 10000 nM
[15] | 6.17 | 13 | 30.2 | 53.8 | 78
[16] | 0 | 6.56 | 8.63 | 16.2 | 40.9
[17] | 0.56 | 9.23 | 10.7 | 12.4 | 49.4
[18] | -2.52 | 16.4 | 39.5 | 74.4 | 82.3
[19] | 2.1 | -35.6 | -25 | -46.3 | -9.38
[20] | -5.12 | 4.63 | 33.5 | 62.9 | 76.7
[21] | -4.32 | -6.37 | -1.56 | 6.1 | 35.3
[22] | -0.27 | -1.5 | -9.05 | 19.5 | 37.8
[23] | -4.59 | 6.78 | 18.3 | 26.5 | 39.6
[24] | 1.91 | 1.53 | 7.51 | 17.5 | 44.4
[25] | -4.86 | 5.75 | -0.36 | 3.44 | 28.4
[26] | -10.8 | 15.4 | 14 | 11.4 | 29.1
[27] | -4.96 | -5.01 | 5 | 14.1 | 31.5
[28] | -5.33 | -11.3 | -6.84 | 4.3 | 23.1
